Measurements as given in PubChem BioAssay AID248 (DTP/NCI, 2004).
Toxic doses and inconclusive results are not listed. No stated cut-off is given here; in the data, active means T/C of 150% or more; inactive means T/C below 125%.

Test system: L1210 leukemia ip in BDF1 mice, survival T/C
Experiment: NCI In Vivo Anticancer Drug Screen. Data for tumor model L1210 Leukemia (intraperitoneal) in B6D2F1 (BDF1) mice
Conditions: endpoint: mean survival time, higher = longer survival
Method in brief: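 Survival endpoint. Drug-treated group vs vehicle group, expressed as T divided by C. Tumor passaged by transplantation.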

[1] = dose: 100.0 mg/kg/injection, schedule: Q04DX003 (ip), vehicle: saline with Tween-80
[2] = dose: 200.0 mg/kg/injection, schedule: Q04DX003 (ip), vehicle: saline with Tween-80
[3] = dose: 400.0 mg/kg/injection, schedule: Q04DX003 (ip), vehicle: saline with Tween-80
[4] = dose: 100.0 mg/kg/injection, schedule: Q04DX003 (ip), vehicle: Klucel (hydroxypropylcellulose) (HPC)
[5] = dose: 200.0 mg/kg/injection, schedule: Q04DX003 (ip), vehicle: Klucel (hydroxypropylcellulose) (HPC)
[6] = dose: 100.0 mg/kg/injection, schedule: Q01DX001 (ip), vehicle: saline
[7] = dose: 400.0 mg/kg/injection, schedule: Q01DX001 (ip), vehicle: saline
[8] = dose: 100.0 mg/kg/injection, schedule: Q01DX001 (ip), vehicle: carboxymethylcellulose (CMC)
[9] = dose: 200.0 mg/kg/injection, schedule: Q01DX001 (ip), vehicle: carboxymethylcellulose (CMC)
[10] = dose: 400.0 mg/kg/injection, schedule: Q01DX001 (ip), vehicle: carboxymethylcellulose (CMC)
[11] = dose: 100.0 mg/kg/injection, schedule: Q01DX009 (ip), vehicle: Klucel (hydroxypropylcellulose) (HPC)
[12] = dose: 100.0 mg/kg/injection, schedule: Q01DX001 (ip), vehicle: saline with Tween-80
[13] = dose: 200.0 mg/kg/injection, schedule: Q01DX001 (ip), vehicle: saline with Tween-80
[14] = dose: 400.0 mg/kg/injection, schedule: Q01DX001 (ip), vehicle: saline with Tween-80

Measured: T/C

COC(=O)C1CCC2c3ccccc3C(C1)c1ccccc12 (configuration not stated)
inactive: dose: 100.0 mg/kg/injection, schedule: Q01DX009 (ip), vehicle: saline with Tween-80 97 % of control | [1] 101 % of control | dose: 200.0 mg/kg/injection, schedule: Q01DX009 (ip), vehicle: saline with Tween-80 95 % of control | [2] 95 % of control | dose: 400.0 mg/kg/injection, schedule: Q01DX009 (ip), vehicle: saline with Tween-80 94 % of control | [3] 93 % of control

COC(OC)c1nc(N)nc(N)c1-c1ccccc1
inactive: dose: 100.0 mg/kg/injection, schedule: Q01DX008 (ip), vehicle: Klucel (hydroxypropylcellulose) (HPC) 108 % of control | [4] 103 % of control | [5] 95 % of control | dose: 400.0 mg/kg/injection, schedule: Q04DX003 (ip), vehicle: Klucel (hydroxypropylcellulose) (HPC) 94 % of control

CSCCc1ccccn1
inactive: dose: 50.0 mg/kg/injection, schedule: Q01DX001 (ip), vehicle: saline 98 % of control | [6] 104 % of control | dose: 200.0 mg/kg/injection, schedule: Q01DX001 (ip), vehicle: saline 98 % of control | [7] 110 % of control

CCCCCCCCCCCCCCCCCC(=O)[O][Hg][c]1ccccc1
inactive: dose: 5.0 mg/kg/injection, schedule: Q01DX001 (ip), vehicle: carboxymethylcellulose (CMC) 94 % of control | dose: 8.0 mg/kg/injection, schedule: Q01DX015 (ip), vehicle: carboxymethylcellulose (CMC) 96 % of control | dose: 10.0 mg/kg/injection, schedule: Q01DX001 (ip), vehicle: carboxymethylcellulose (CMC) 94 % of control | dose: 10.0 mg/kg/injection, schedule: Q01DX009 (ip), vehicle: saline with Tween-80 94 % of control | dose: 16.0 mg/kg/injection, schedule: Q01DX015 (ip), vehicle: carboxymethylcellulose (CMC) 92 % of control | dose: 20.0 mg/kg/injection, schedule: Q01DX001 (ip), vehicle: carboxymethylcellulose (CMC) 92 % of control | dose: 20.0 mg/kg/injection, schedule: Q01DX009 (ip), vehicle: saline with Tween-80 110 % of control | dose: 20.0 mg/kg/injection, schedule: Q04DX003 (ip), vehicle: saline 102 % of control | dose: 32.0 mg/kg/injection, schedule: Q01DX015 (ip), vehicle: carboxymethylcellulose (CMC) 94 % of control | dose: 40.0 mg/kg/injection, schedule: Q01DX001 (ip), vehicle: carboxymethylcellulose (CMC) 100 % of control | dose: 40.0 mg/kg/injection, schedule: Q04DX003 (ip), vehicle: saline 98 % of control

Nc1ccn(C2OC(COC(c3ccccc3)(c3ccccc3)c3ccccc3)C(O)C2O)c(=O)n1 (configuration not stated)
inactive: dose: 100.0 mg/kg/injection, schedule: Q01DX005 (ip), vehicle: saline 101 % of control | dose: 200.0 mg/kg/injection, schedule: Q01DX005 (ip), vehicle: saline 112 % of control

Cc1cccc(NC(=O)NCCO)c1
inactive: [8] 103 % of control | [9] 109 % of control | [10] 97 % of control

CCN(CC)CCCNC1=C(Cl)C(=O)c2ccccc2C1=O
inactive: dose: 25.0 mg/kg/injection, schedule: Q01DX009 (ip), vehicle: saline with Tween-80 95 % of control

Cc1cc(C)c(/C=C2\CCNC2=O)c(C)c1
inactive: dose: 50.0 mg/kg/injection, schedule: Q01DX001 (ip), vehicle: carboxymethylcellulose (CMC) 96 % of control | [8] 90 % of control | [9] 100 % of control | [10] 105 % of control

O=C(O)c1cc(N=C2C=CC(=C(c3ccccc3)c3ccc(Nc4ccc(Cl)c(C(=O)O)c4)cc3)C=C2)ccc1Cl
inactive: dose: 100.0 mg/kg/injection, schedule: Q01DX001 (ip), vehicle: other 97 % of control | [11] 105 % of control | dose: 200.0 mg/kg/injection, schedule: Q01DX001 (ip), vehicle: other 100 % of control | dose: 200.0 mg/kg/injection, schedule: Q01DX009 (ip), vehicle: Klucel (hydroxypropylcellulose) (HPC) 97 % of control | dose: 400.0 mg/kg/injection, schedule: Q01DX001 (ip), vehicle: other 103 % of control

NC(=O)c1cc(Cl)cc(Cl)c1N1CC[N+](CCCl)=N1
inactive: [12] 103 % of control

CN(C)CCSCCO
inactive: dose: 100.0 mg/kg/injection, schedule: Q04DX002 (ip), vehicle: saline 107 % of control | dose: 200.0 mg/kg/injection, schedule: Q04DX002 (ip), vehicle: saline 95 % of control | dose: 400.0 mg/kg/injection, schedule: Q04DX002 (ip), vehicle: saline 107 % of control

NC(N)=N/N=C/N/N=C/c1ccccc1O
inactive: dose: 60.0 mg/kg/injection, schedule: Q01DX Z (oral), vehicle: carboxymethylcellulose (CMC) 91 % of control | dose: 120.0 mg/kg/injection, schedule: Q01DX Z (oral), vehicle: carboxymethylcellulose (CMC) 91 % of control | dose: 240.0 mg/kg/injection, schedule: Q01DX Z (oral), vehicle: carboxymethylcellulose (CMC) 100 % of control | dose: 480.0 mg/kg/injection, schedule: Q01DX Z (oral), vehicle: carboxymethylcellulose (CMC) 100 % of control

CC(C)CCN1C(c2ccccc2)=CN(Cc2ccccc2)C=C1c1ccccc1
inactive: dose: 100.0 mg/kg/injection, schedule: Q04DX002 (ip), vehicle: Klucel (hydroxypropylcellulose) (HPC) 100 % of control | dose: 200.0 mg/kg/injection, schedule: Q04DX002 (ip), vehicle: Klucel (hydroxypropylcellulose) (HPC) 92 % of control | dose: 400.0 mg/kg/injection, schedule: Q04DX002 (ip), vehicle: Klucel (hydroxypropylcellulose) (HPC) 95 % of control

CCCCCCCCCCC/C(C)=N/Nc1ccc([N+](=O)[O-])cc1[N+](=O)[O-]
inactive: [12] 94 % of control | [13] 92 % of control | [14] 92 % of control

O=S1(=O)CCCC1C(O)(c1ccccc1)c1ccccc1 (configuration not stated)
inactive: [1] 97 % of control | [2] 92 % of control | [3] 94 % of control

O=C(O)c1cccc(F)c1C(=O)c1ccc2ccccc2c1
inactive: dose: 75.0 mg/kg/injection, schedule: Q01DX001 (ip), vehicle: carboxymethylcellulose (CMC) 96 % of control | [4] 97 % of control | dose: 150.0 mg/kg/injection, schedule: Q01DX001 (ip), vehicle: carboxymethylcellulose (CMC) 95 % of control | [5] 105 % of control | dose: 300.0 mg/kg/injection, schedule: Q01DX001 (ip), vehicle: carboxymethylcellulose (CMC) 93 % of control

CCN1C(=O)C2C3C=CC(C3)C2C1=O (configuration not stated)
inactive: dose: 25.0 mg/kg/injection, schedule: Q04DX003 (ip), vehicle: saline with Tween-80 97 % of control | dose: 50.0 mg/kg/injection, schedule: Q04DX003 (ip), vehicle: saline with Tween-80 104 % of control

CC(C)N(C(=O)Nc1cccc(C(F)(F)F)c1)C1CCCCC1
inactive: dose: 100.0 mg/kg/injection, schedule: Q01DX009 (ip), vehicle: gum acacia 90 % of control | dose: 200.0 mg/kg/injection, schedule: Q01DX009 (ip), vehicle: gum acacia 98 % of control | dose: 400.0 mg/kg/injection, schedule: Q01DX009 (ip), vehicle: gum acacia 88 % of control

CCCCCC(=C/c1ccccc1)/C=N/NC(=O)c1ccc[n+](C)c1
inactive: dose: 50.0 mg/kg/injection, schedule: Q01DX009 (ip), vehicle: Klucel (hydroxypropylcellulose) (HPC) 90 % of control | [11] 98 % of control

[O-]/[N+](C/[N+]([O-])=N\OCCCl)=N\OCCCl
inactive: dose: 100.0 mg/kg/injection, schedule: Q01DX001 (ip), vehicle: Klucel (hydroxypropylcellulose) (HPC) 91 % of control | dose: 200.0 mg/kg/injection, schedule: Q01DX001 (ip), vehicle: Klucel (hydroxypropylcellulose) (HPC) 91 % of control | dose: 400.0 mg/kg/injection, schedule: Q01DX001 (ip), vehicle: Klucel (hydroxypropylcellulose) (HPC) 91 % of control

CC12CCC3C(CC=C4CC(O)CCC43C)C1C/C(=C\c1ccccc1)C2=O (configuration not stated)
inactive: [12] 93 % of control | [13] 93 % of control | [14] 92 % of control

CC(=O)OCC(=O)c1cc(OC(C)=O)c(OC(C)=O)c(OC(C)=O)c1
inactive: [6] 91 % of control | [7] 94 % of control
